The record followed here is patent US5057146A (priority 1986, dated 1991).

The subject of one test is Venturia inaequalis. Kind of test: foliar fungal disease control, Venturia inaequalis on apple. To be noted: 100 ppm foliar spray plus root drench approx. 40 ppm a.i./dry soil. In kind it is in vivo. The procedure:
(§1) The compounds were tested against a variety of foliar fungal diseases of plants. The technique employed was as follows.
(§2) The plants were grown in John Innes Potting Compost (No 1 or 2) in 4 cm diameter minipots. The test compounds were formulated either by bead milling with aqueous Dispersol T or as a solution in acetone or acetone/ethanol which was diluted to the required concentration immediately before use. […] The sprays were applied to maximum retention and the root drenches to a final concentration equivalent to approximately 40 ppm a.i./dry soil. Tween 20, to give a final concentration of 0.05%, was added when the sprays were applied to cereals.
(§3) For most of the tests the compound was applied to the soil (roots) and to the foliage (by spraying) one or two days before the plant was inoculated with the disease. An exception was the test on Erysiphe graminis in which the plants were inoculated 24 hours before treatment. Foliar pathogens were applied by spray as spore suspensions onto the leaves of test plants. After inoculation, the plants were put into an appropriate environment to allow infection to proceed and then incubated until the disease was ready for assessment. The period between inoculation and assessment varied from four to fourteen days according to the disease and environment.
(§4) The disease control was recorded by the following grading: […]

The subject of a further test is Erysiphe graminis hordei. Description: foliar fungal disease control, Erysiphe graminis hordei on barley. To be noted: 100 ppm foliar spray plus root drench approx. 40 ppm a.i./dry soil; inoculated 24 hours before treatment. The class given is in vivo. The procedure: as §1, §2, §3, §4
A further test concerns Plasmopara viticola. Description: foliar fungal disease control, Plasmopara viticola on vine. In kind it is in vivo. To be noted: 100 ppm foliar spray plus root drench approx. 40 ppm a.i./dry soil. The procedure: as §1, §2, §3, §4
Another test relates to Phytophthora infestans. In kind it is in vivo, Phytophthora infestans (tomato). To be noted: 100 ppm foliar spray plus root drench approx. 40 ppm a.i./dry soil.
Another test relates to Pyricularia oryzae. In kind it is in vivo, Pyricularia oryzae (rice). To be noted: 100 ppm foliar spray plus root drench approx. 40 ppm a.i./dry soil.
Another test has as its system Puccinia recondita. Kind of test: foliar fungal disease control, Puccinia recondita on wheat. In kind it is in vivo. To be noted: 100 ppm foliar spray plus root drench approx. 40 ppm a.i./dry soil. The protocol: as §1, §2, §3, §4
The subject of another test is Cercospora arachidicola. Description: foliar fungal disease control, Cercospora arachidicola on peanut. In kind it is in vivo. To be noted: 100 ppm foliar spray plus root drench approx. 40 ppm a.i./dry soil. The procedure: as §1, §2, §3, §4

With `CO/C=C(/C(=O)OC)c1ccccc1Oc1cc(C)ccn1` [Compound 10 (Table I)], the “disease control grading, Venturia inaequalis (apple)” value (“disease control grading … (apple)” for short) with Venturia inaequalis came to 4. For the same molecule, in the test on Erysiphe graminis hordei, the “disease control grading, Erysiphe graminis hordei (barley)” value (“disease control grading … (barley)” below) is recorded as 4. The “disease control grading, Plasmopara viticola (vine)” value (shortened to “disease control grading … (vine)”) with Plasmopara viticola is given as 4. Besides, in the test on Phytophthora infestans, the “disease control grading, Phytophthora infestans (tomato)” value (“disease control grading … (tomato)” below) came to 4. In addition, the “disease control grading, Pyricularia oryzae (rice)” value (“disease control grading … (rice)” below) in the test on Pyricularia oryzae is on record as 4. Further, the “disease control grading, Puccinia recondita (wheat)” value (shortened to “disease control grading … (wheat)”) in the test on Puccinia recondita stood at 4. The “disease control grading, Cercospora arachidicola (peanut)” value (from here on “disease control grading … (peanut)”) in the test with Cercospora arachidicola was 3 (trace-5% of disease on untreated plants).

Turning to `CO/C=C(/C(=O)OC)c1ccccc1Oc1nc(C)cc(Cl)n1` [Compound 166 (Table I)], the “disease control grading … (apple)” value in the test on Venturia inaequalis is 4. Also, the “disease control grading … (barley)” value in the test with Erysiphe graminis hordei is on record as 4. For the same molecule, in the test with Plasmopara viticola, the “disease control grading … (vine)” value is recorded as 3 (trace-5% of disease on untreated plants). Besides, in the test with Phytophthora infestans, the “disease control grading … (tomato)” value was 3 (trace-5% of disease on untreated plants). In the test with Pyricularia oryzae, the “disease control grading … (rice)” value is reported as 1 (26-59% of disease on untreated plants). Besides, the “disease control grading … (wheat)” value with Puccinia recondita came out at 4. Moreover, the “disease control grading … (peanut)” value in the test with Cercospora arachidicola is listed as 4.

`CO/C=C(/C(=O)OC)c1ccccc1Oc1ccc([N+](=O)[O-])cn1` [Compound 133 (Table I), (E)-methyl 2-[2'-(5"-nitropyridin-2"-yloxy)phenyl]-3-methoxyacrylate]: the “disease control grading … (apple)” value in the test with Venturia inaequalis is 4. Moreover, in the test with Erysiphe graminis hordei, the “disease control grading … (barley)” value is reported as 4. Also, the “disease control grading … (vine)” value in the test on Plasmopara viticola came out at 4. Also, the “disease control grading … (tomato)” value in the test with Phytophthora infestans is 0 (60-100% of disease on untreated plants). In addition, the “disease control grading … (rice)” value with Pyricularia oryzae worked out at 4. In addition, the “disease control grading … (wheat)” value in the test with Puccinia recondita was 4.

For the molecule `CO/C=C(/C(=O)OC)c1ccccc1Oc1nc(F)cc(F)n1` [Compound 137 (Table I)], in the test on Venturia inaequalis, the “disease control grading … (apple)” value is listed as 4. Further, the “disease control grading … (barley)” value in the test with Erysiphe graminis hordei is 0 (60-100% of disease on untreated plants). For the same molecule, the “disease control grading … (vine)” value in the test with Plasmopara viticola is on record as 0 (60-100% of disease on untreated plants). In addition, the “disease control grading … (tomato)” value in the test with Phytophthora infestans is recorded as 0 (60-100% of disease on untreated plants). The “disease control grading … (rice)” value in the test on Pyricularia oryzae is 0 (60-100% of disease on untreated plants). Moreover, the “disease control grading … (wheat)” value in the test with Puccinia recondita is reported as 2 (6-25% of disease on untreated plants). For the same molecule, the “disease control grading … (peanut)” value in the test with Cercospora arachidicola is listed as 0 (60-100% of disease on untreated plants).

As to `CO/C=C(/C(=O)OC)c1ccccc1Oc1cc(F)nc(F)n1` [Compound 138 (Table I)], the “disease control grading … (apple)” value with Venturia inaequalis is 3 (trace-5% of disease on untreated plants). In addition, the “disease control grading … (barley)” value in the test with Erysiphe graminis hordei is reported as 0 (60-100% of disease on untreated plants). For the same molecule, the “disease control grading … (vine)” value in the test on Plasmopara viticola came to 4. For the same molecule, in the test on Phytophthora infestans, the “disease control grading … (tomato)” value is recorded as 0 (60-100% of disease on untreated plants). The “disease control grading … (rice)” value with Pyricularia oryzae is given as 0 (60-100% of disease on untreated plants). In the test with Puccinia recondita, the “disease control grading … (wheat)” value was determined as 4. Moreover, the “disease control grading … (peanut)” value in the test on Cercospora arachidicola is 0 (60-100% of disease on untreated plants).

On to `CO/C=C(/C(=O)OC)c1ccccc1Oc1cc(F)nc(Cl)c1` [Compound 167 (Table I)], for which the “disease control grading … (apple)” value in the test on Venturia inaequalis is on record as 4. Besides, the “disease control grading … (barley)” value with Erysiphe graminis hordei came to 4. In addition, in the test on Plasmopara viticola, the “disease control grading … (vine)” value was determined as 4. Besides, the “disease control grading … (rice)” value with Pyricularia oryzae was 3 (trace-5% of disease on untreated plants). In the test with Puccinia recondita, the “disease control grading … (wheat)” value is recorded as 4. The “disease control grading … (peanut)” value in the test with Cercospora arachidicola is reported as 0 (60-100% of disease on untreated plants).
